In one experiment the test system is AR / CBP ternary complex. Nature of the experiment: Ternary complex formation assay (sandwich ELISA, AR capture / CBP detection) in VCaP cell lysates. The note with it: 1.5 hours treatment, sandwich ELISA (AR capture, CBP or p300 detection). Type of experiment: cell-based. Summed up:
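VCaP cells (50K/well, 5% charcoal-stripped FBS, ≥3 days) treated with bifunctional compound for 1.5 h, then lysed 30 min at 4 °C. AR captured on anti-AR (AR 441) plates; bound CBP or p300 detected by rabbit mAb plus HRP secondary. QuantaRed chemifluorescence read at ex 570/em 585, immediately and at 5 and 15 min.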
For orientation: In an ELISA, binding on a coated surface is turned into a signal by an enzyme label.

For a further experiment, the system named is VCaP cells. Nature of the experiment: VCaP growth inhibition assay. The format is cell-based. To be noted: 30 pM R1881, 9 days, CTG. The method, boiled down: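 VCaP cells in phenol red-free DMEM/5% CSS, pre-incubated 72 h, then stimulated with R1881 (final 30 pM) and treated with 1:5 serial dilutions (final 100 nM to 10 fM) for 9 days at 37 °C. Viability by CellTiter-Glo luminescence; IC50 from 4-parameter logistic fit of RLU vs concentration.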

By EC50 is commonly meant the concentration giving half of the maximal effect. Low readings indicate higher potency in that assay, high ones lower potency in that assay. A word on the IC50: it is the point on the concentration scale where inhibition reaches its midpoint.

`COc1cc(OC2C(C)(C)C(NC(=O)c3ccc(N4CCC(C)(N5CCC(n6nc(N7CCCc8cc(-c9cnn(C)c9)c(C(F)F)cc87)c7c6CCN(C(C)=O)C7)CC5)CC4)cc3)C2(C)C)ccc1C#N` (stereo not drawn) [Compound 305, 4-[4-[4-[5-acetyl-3-[7-(difluoromethyl)-6-(1-methylpyrazol-4-yl)-3,4-dihydro-2H-quinolin-1-yl]-6,7-dihydro-4H-pyrazolo[4,3-c]pyridin-1-yl]-1-piperidyl]-4-methyl-1-piperidyl]-N-[3-(4-cyano-3-methoxy-phenoxy)-2,2,4,4-tetramethyl-cyclobutyl]benzamide] displayed an EC50 in the experiment with AR / CBP ternary complex of under 1 nM. The same compound returned an IC50 in the experiment on VCaP cells of at most 0.1 nM.

On to `COc1cc(OC2C(C)(C)C(NC(=O)c3ccc(N4CCC(CN5CCC(n6nc(N7CCCc8cc(-c9cnn(C)c9)c(C(F)F)cc87)c7c6CCN(C(C)=O)C7)CC5)(OC)CC4)cc3)C2(C)C)ccc1C#N` (stereo not drawn) [Compound 264, 4-[4-[[4-[5-acetyl-3-[7-(difluoromethyl)-6-(1-methylpyrazol-4-yl)-3,4-dihydro-2H-quinolin-1-yl]-6,7-dihydro-4H-pyrazolo[4,3-c]pyridin-1-yl]-1-piperidyl]methyl]-4-methoxy-1-piperidyl]-N-[3-(4-cyano-3-methoxy-phenoxy)-2,2,4,4-tetramethyl-cyclobutyl]benzamide], for which the concentration for a half-maximal effect (EC50) in the experiment with AR / CBP ternary complex was under 1 nM. For the same compound, the IC50 in the experiment on VCaP cells was 0.1 to 1 nM.

As for `COc1cc(OC2C(C)(C)C(NC(=O)c3ccc(N4CCC5(CC4)CC4(CC(n6nc(N7CCCc8cc(-c9cnn(C)c9)c(C(F)F)cc87)c7c6CCN(C(C)=O)C7)C4)C5)cc3)C2(C)C)ccc1C#N` (stereo not drawn) [Compound 286, 4-[2-[5-acetyl-3-[7-(difluoromethyl)-6-(1-methylpyrazol-4-yl)-3,4-dihydro-2H-quinolin-1-yl]-6,7-dihydro-4H-pyrazolo[4,3-c]pyridin-1-yl]-9-azadispiro[3.1.5^6.1^4]dodecan-9-yl]-N-[3-(4-cyano-3-methoxy-phenoxy)-2,2,4,4-tetramethyl-cyclobutyl]benzamide], in the experiment on AR / CBP ternary complex, the EC50 was over 100 nM. For the same compound, the IC50 in the experiment on VCaP cells lay in the range of 1 to 100 nM.

For `COc1cc(OC2C(C)(C)C(NC(=O)c3ccc(N4CCN(C5CCN(c6ccc(-c7cc8c(cc7C(F)F)N(c7nn(C9CCOCC9)c9c7CN(C(C)=O)CC9)CCC8)cn6)CC5)CC4)cc3)C2(C)C)ccc1C#N` (stereo not drawn) [Compound 325, 4-[4-[1-[5-[1-(5-acetyl-1-tetrahydropyran-4-yl-6,7-dihydro-4H-pyrazolo[4,3-c]pyridin-3-yl)-7-(difluoromethyl)-3,4-dihydro-2H-quinolin-6-yl]-2-pyridyl]-4-piperidyl]piperazin-1-yl]-N-[3-(4-cyano-3-methoxy-phenoxy)-2,2,4,4-tetramethyl-cyclobutyl]benzamide], the 50% effective concentration (EC50) in the experiment with AR / CBP ternary complex was under 1 nM. In the experiment with VCaP cells, this compound came in with an IC50 of 0.1 to 1 nM.

Consider `COc1cc(OC2C(C)(C)C(NC(=O)c3ccc(OC4CC(N5CCC(n6nc(N7CCCc8cc(-c9cnn(C)c9)c(C(F)F)cc87)c7c6CCN(C(C)=O)C7)CC5)C4)cc3)C2(C)C)ccc1C#N` (stereo not drawn) [Compound 375, 4-[3-[4-[5-acetyl-3-[7-(difluoromethyl)-6-(1-methylpyrazol-4-yl)-3,4-dihydro-2H-quinolin-1-yl]-6,7-dihydro-4H-pyrazolo[4,3-c]pyridin-1-yl]-1-piperidyl]cyclobutoxy]-N-[3-(4-cyano-3-methoxy-phenoxy)-2,2,4,4-tetramethyl-cyclobutyl]benzamide], for which the EC50 with AR / CBP ternary complex is under 1 nM. The concentration for half-maximal inhibition (IC50) in the experiment with VCaP cells is 0.1 to 1 nM.

On to `COc1cc(OC2C(C)(C)C(NC(=O)c3cnc(N4CCC(CN5CCC(n6nc(N7CCCc8cc(-c9cnn(C)c9)c(C(F)F)cc87)c7c6CCN(C(C)=O)C7)CC5)C5(CC5)C4)nc3)C2(C)C)ccc1C#N` (stereo not drawn) [Compound 362, 2-[8-[[4-[5-acetyl-3-[7-(difluoromethyl)-6-(1-methylpyrazol-4-yl)-3,4-dihydro-2H-quinolin-1-yl]-6,7-dihydro-4H-pyrazolo[4,3-c]pyridin-1-yl]-1-piperidyl]methyl]-5-azaspiro[2.5]octan-5-yl]-N-[3-(4-cyano-3-methoxy-phenoxy)-2,2,4,4-tetramethyl-cyclobutyl]pyrimidine-5-carboxamide], for which the EC50 with AR / CBP ternary complex was under 1 nM. In the experiment with VCaP cells, this compound yielded an IC50 of at most 0.1 nM.

For the origin of these results see patent publication US20250129070A1, “BIFUNCTIONAL ANDROGEN RECEPTOR COMPOUNDS” (priority 2023, published 2025).
